From patent US5120718A, “Candida acid protease inhibiting compounds” (priority 1991, dated 1992)
Counter-ions that a name gives are not always drawn. Where a SMILES comes first, the peptide text is derived from it. [ ]: non-standard residue; d: D form. The star is where a group is joined. Sta = CC(C)C[C@H](N)[C@@H](O)CC(=O)O; Isovaleryl = CC(C)CC(=O)*

Target: T1, Candida albicans acid protease (Candida albicans, UniProt P0DJ06)
T1 construct: endogenous in cells; host or cells: Candida albicans ATCC10231 (proteinase secreted into the culture medium, purified in house)
Experiment: In vitro inhibitor assay, microtiter assay with fluorogenic substrate A78331
Format: biochemical, Candida albicans ATCC10231
Settings: not given
Protocol: Isolation and Purification of Candida albican Acid Protease Organism and growth conditions. Candida albicans ATCC10231 was grown overnight in Sabouraud broth (Difco) at 30° C. Cells were centrifuged at 10,000xg for 10 min (4° C.) and the cell pellet washed once with 10 mM phosphate buffered saline (PBS), pH7.0. Washed cells (6×10^6 colony forming units per mL) were grown in yeast nitrogen base without ammonium sulfate or amino acids (Difco), plus 2% glucose and 0.1% casein (nitrogen source) at 37° C.
Proteinase isolation. […] Cells were then harvested at 10,000xg for 20 min (4° C.) and the supernatant filtered through a 0.2μ acetate filter unit (Nalgen). The filtrate was concentrated on an Amicon concentrator (PM30 or YM10 membrane, 75 mm) and 30 mL of the concentrate was loaded onto a Cibacron blue F3GA-6% agarose (Pierce Chem.) column (1.5x44cm) equilibrated with 10 mM sodium citrate, pH 6.5, containing lmM EDTA and 0.02% sodium azide (Ray, T. L., and Payne, C. D. Infection and Immunity 58:508-514, 1990). Bovine serum albumin (BSA) was used as substrate to monitor the column for proteinase activity and to determine total proteolytic units. One BSA proteolytic unit was defined as an optical density (750 nm wavelength) increase of 0.100 under incubation conditions of 37° C. for 60 min (Remold, H., Fasold, H., and Staib, F. Biochimica et Biophysica Acta I67:399-406, 1968). […] Proteinase purity and molecular weight was determined by the Phast-gel (12.5% acrylamide) electrophoresis system (Pharmacia). Protein was determined by the Lowry method (Lowry, O. H., Rosenbrough, N. J., Farr, A. L., and Randall, R. J. Journal of Biological Chemistry 193:263-275, 1951). A fluorogenic substrate, A78331, may also be used to monitor proteinase production and purification. This substrate, DABCYL-Gaba-[…]EDANS (Holzman, T. F., Chung, C. C., Edalji, R., Egan, D. A., Gubbins, E. J., Rueter, A., Howard, G., Yang, L. K., Pederson, T. M., Krafft, G. A., and Wang, G. T. Journal of Protein Chemistry 9:663-672, 1990) contains the fluorescent EDANS group, [5-(2-aminoethyl)-amino]naphthalene-1-sulfonic acid, which is quenched by the DABCYL group, 4-(4-dimethyl-aminophenylazo)benzoic acid, as long as it is part of the molecule (Matayoshi, E. D., Wang, G. T., Krafft, G. A., and Erickson, J. Science 247:954-958, 1990). Proteolysis of this compound by the fungal proteinase releases Thr-EDANS, which when activated at 340 nm fluoresces at 490 nm with the same intensity as equimolar EDANS. Activity is expressed in terms of nmol EDANS released from 32 μM A78331 under incubation conditions of 22° C. for 60 min.
In Vitro Inhibitor Assay Method
Microtiter assay. The assay for inhibitors of C. albicans acid proteinase was done in microtiter trays with the fluorogenic substrate A78331. […] The reaction mixture consisted of 5μL test compound or dimethyl sulfoxide and 45μL of fungal proteinase (0.13 BSA proteolytic units or 0.13 nmol EDANS released) in 50 mM sodium citrate, pH 4.5, which was preincubated at 22° C. for 30 min. The reaction was started with the addition of 50μL fluorogenic substrate in citrate buffer and the incubation was continued at 22° C. for 90 min. The reaction was terminated with 150μL pepstatin (final concentration of 1μM) and 210μL samples were transfered to microfluor plates for fluorescence quantitation in a luminescence spectrophotometer (Perkin-Elmer model LS-50). The excitation wavelength was 340 nm and the emission was monitored at 490 nm (430 nm filter employed). Inhibition was expressed as % change in relative intensity from the dimethyl sulfoxide control group (no inhibitor). IC50's were determined from plots of log dose versus % inhibition from control.

T1 sequence (P0DJ06 57-398): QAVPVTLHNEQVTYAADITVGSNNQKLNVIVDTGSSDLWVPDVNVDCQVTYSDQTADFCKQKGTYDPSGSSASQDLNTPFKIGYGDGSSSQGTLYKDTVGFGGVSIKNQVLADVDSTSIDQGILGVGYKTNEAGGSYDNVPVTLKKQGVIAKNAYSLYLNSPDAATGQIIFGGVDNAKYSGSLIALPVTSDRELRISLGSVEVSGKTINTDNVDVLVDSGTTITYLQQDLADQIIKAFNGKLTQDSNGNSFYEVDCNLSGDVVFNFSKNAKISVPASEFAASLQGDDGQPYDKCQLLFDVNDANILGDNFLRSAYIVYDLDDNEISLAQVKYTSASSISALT

Question: For CCCCNC(=O)[C@H](C[C@H](O)[C@H](CC1CCCCC1)NC(=O)[C@H](CCCC)N1CCN(C(=O)N2CCN(C)CC2)[C@H](Cc2ccccc2)C1=O)C(C)C [Example 1, (2S)-2-((3R)-3-Benzyl-4-N-(4-methylpiperazin-1-yl-carbonyl)-2-keto-piperazin-1-yl}-hexanoic acid Amide of (2R,4S,5S)-5-amino-6-cyclohexyl-4-hydroxy-2-isopropylhexanoyl N-(n-Butyl)amide Hydrochloride], which IC50 is on record?
Answer: 1.3 nM

Question: For CCCCNC(=O)[C@H](C[C@H](O)[C@H](CC1CCCCC1)NC(=O)[C@H](CCCC)N1C[C@@H](Cc2ccccc2)N(S(=O)(=O)c2ccc(C)cc2)CC1=O)C(C)C [Example 3, (2S)-2-{(3R)-3-Benzyl-4-N-(4-methylbenzene-sulfonyl)-6-keto-piperazin-1-yl}-hexanoic acid Amide of (2R,4S,5S)-5-Amino-6-cyclohexyl-4-hydroxy-2-isopropylhexanoyl N-(n-Butyl)amide], which IC50 is on record?
Answer: 30.1 nM

Question: With CCCCNC(=O)[C@H](C[C@H](O)[C@H](CC1CCCCC1)NC(=O)[C@H](CCCC)N1CCN(S(=O)(=O)c2ccc(OC)cc2)[C@H](Cc2ccccc2)C1=O)C(C)C [Example 5, (2S)-2-{(3R)-3-Benzyl-4-N-(4-methoxybenzene-sulfonyl)-2-keto-piperazin-1-yl)-hexanoic acid Amide of (2R,4S,5S)-5-Amino-6-cyclohexyl-4-hydroxy-2-isopropylhexanoyl N-(n-Butyl)amide] as the compound, how does the IC50 read?
Answer: 13.3 nM

Question: For CCCC[C@@H](C(=O)N[C@@H](CC1CCCCC1)[C@@H](O)[C@@H](O)CC(C)C)N1CCN(S(=O)(=O)c2ccc(NC)cc2)[C@H](Cc2ccccc2)C1=O [Example 11, (2S)-2-{(3R)-3-Benzyl-4-N-(4-(methylamino)benzene-sulfonyl)-2-keto-piperazin-1-yl}-hexanoic acid Amide of (2S,3R,4S)-2-Amino-1-cyclohexyl-3,4-dihydroxyl-6-methylheptane], which IC50 is on record?
Answer: 85 nM

Question: Which IC50 does the source give for CCCC[C@@H](C(=O)N[C@@H](CC1CCCCC1)[C@@H](O)C[C@@H](C(=O)NCCCN1CCOCC1)C(C)C)N1CCN(C(=O)N2CCN(C)CC2)[C@@H](Cc2ccccc2)C1=O [Example 12, (2S)-2-{(3S)-3-Benzyl-4-N-(4-methylpiperazin-1-yl-carbonyl)-2-keto-piperazin-1-yl}-hexanoic acid Amide of (2R,4S,5S)-5-Amino-6-cyclohexyl-4-hydroxy-2-isopropylhexanoyl N-3-(N-Morpholinyl)propyllamide] here?
Answer: 3.8 nM

Question: For CCCCNC(=O)[C@H](C[C@H](O)[C@H](CC1CCCCC1)NC(=O)[C@H](CCCC)N1CCN(S(=O)(=O)N2CCN(C)CC2)[C@@H](Cc2ccccc2)C1=O)C(C)C [Example 13], which IC50 is on record?
Answer: 2.7 nM

Question: For CCCCNC(=O)[C@H](C[C@H](O)[C@H](CC1CCCCC1)NC(=O)[C@H](CCCC)N1CCN(C(=O)N2CCC(OCOC)CC2)[C@@H](Cc2ccccc2)C1=O)C(C)C [Example 14, 2S-(3S-Benzyl-4-N-(4-methoxymethoxypiperidinyl-carbonyl)-2-keto-piperazin-1-yl)-hexanoic acid Amide of (2R,4,5S) -5-Amino-6-cyclohexyl-4-hydroxy-2-isopropylhexanoyl N-(n-Butyl)amide], which IC50 is on record?
Answer: 4.5 nM

Question: For CCCC[C@@H](C(=O)N[C@@H](CC1CCCCC1)[C@@H](O)C[C@@H](C(=O)NCCCN1CCOCC1)C(C)C)N1CCN(S(=O)(=O)N2CCN(C)CC2)[C@@H](Cc2ccccc2)C1=O [Example 15, (2S)-2-{(3S)-3-Benzyl-4-N-(4-methylpiperazin-1-yl-sulfonyl)-2-keto-piperazine-1-yl}-hexanoic acid Amide of (2R,4S,5S)-5-Amino-6-cyclohexyl-4hydroxy-2-isopropylhexanoyl N-[3-(N-Morpholinyl)propyl]amide], which IC50 is on record?
Answer: 3.8 nM

Question: Which IC50 does the source give for CCCC[C@@H](C(=O)N[C@@H](CC1CCCCC1)[C@@H](O)C[C@@H](C(=O)NCCCN1CCOCC1)C(C)C)N1CCN(C(=O)N2CCC(OCOC)CC2)[C@@H](Cc2ccccc2)C1=O [Example 16, (2S)-2-{(3S)-3-Benzyl-4-N-(4-methoxymethoxypiperidin-1-yl-carbonyl)-2-keto-piperazin-1-yl}-hexanoic acid Amide of (2R, 4S, 5S)-5-Amino-6-cyclohexyl-4-hydroxy-2-isopropylhexanoyl N-[3-(N-Morpholinyl)propyl]amide] here?
Answer: 5 nM

Question: With CCCC[C@@H](C(=O)N[C@@H](CC1CCCCC1)[C@@H](O)C[C@@H](C(=O)NCCN(C)C)C(C)C)N1CCN(C(=O)N2CCN(C)CC2)[C@H](Cc2ccccc2)C1=O [Example 17] as the compound, how does the IC50 read?
Answer: 6.2 nM

Question: With CCCC[C@@H](C(=O)N[C@@H](CC1CCCCC1)[C@@H](O)C[C@@H](C(=O)NCCCN(C)C)C(C)C)N1CCN(C(=O)N2CCN(C)CC2)[C@H](Cc2ccccc2)C1=O [Example 18, (2S)-2{(3R)-3-Benzyl-4-N-(4-methylpiperazin-1-yl-carbonyl)-2-keto-piperazin-1-yl}-hexanoic acid Amide of (2R,4S,5S)-5-Amino-6-cyclohexyl-4-hydroxy-2-isopropylhexanoyl N-[3-(Dimethylamino)propyl]amide] as the compound, how does the IC50 read?
Answer: 3.8 nM

Tested on: Candida acid protease
Experiment: not given
Settings: background art; cited from earlier work

Question: With CC(C)CC(=O)N[C@H](C(=O)N[C@H](C(=O)N[C@@H](CC(C)C)[C@@H](O)CC(=O)N[C@@H](C)C(=O)N[C@@H](CC(C)C)[C@@H](O)CC(=O)O)C(C)C)C(C)C [Pepstatin A] (Isovaleryl-VV[Sta]A[Sta]-OH) as the compound, how does the “potency as inhibitor of Candida acid protease (in words)” value read?
Answer: not very potent inhibitors of the enzyme

Question: And the “specificity (in words)” value?
Answer: non-specific

Question: What does the source list for CC(C)C[C@H](NC(=O)[C@@H](NC(=O)N[C@@H](Cc1ccccc1)C(=O)O)[C@@H]1CCN=C(N)N1)C(=O)N[C@H](C=O)Cc1ccccc1 [chymostatin]?
Answer: potency as inhibitor of Candida acid protease (in words): not very potent inhibitors of the enzyme; specificity (in words): non-specific
